Each structure is given as a SMILES string. Some results are limits rather than exact numbers.

Sequence of Aurora B/INCENP (Q96GD4 whole entry): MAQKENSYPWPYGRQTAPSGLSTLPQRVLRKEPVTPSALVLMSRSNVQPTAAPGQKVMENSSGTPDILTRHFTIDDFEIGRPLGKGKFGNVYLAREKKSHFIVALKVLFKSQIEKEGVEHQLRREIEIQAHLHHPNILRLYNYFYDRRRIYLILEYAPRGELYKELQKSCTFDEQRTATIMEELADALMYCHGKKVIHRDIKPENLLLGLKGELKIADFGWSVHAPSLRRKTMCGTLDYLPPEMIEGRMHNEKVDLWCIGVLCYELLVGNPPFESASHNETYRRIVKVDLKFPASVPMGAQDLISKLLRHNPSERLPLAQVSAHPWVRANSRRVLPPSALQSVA
Sequence of Aurora B/INCENP (Q9NQS7 whole entry partner): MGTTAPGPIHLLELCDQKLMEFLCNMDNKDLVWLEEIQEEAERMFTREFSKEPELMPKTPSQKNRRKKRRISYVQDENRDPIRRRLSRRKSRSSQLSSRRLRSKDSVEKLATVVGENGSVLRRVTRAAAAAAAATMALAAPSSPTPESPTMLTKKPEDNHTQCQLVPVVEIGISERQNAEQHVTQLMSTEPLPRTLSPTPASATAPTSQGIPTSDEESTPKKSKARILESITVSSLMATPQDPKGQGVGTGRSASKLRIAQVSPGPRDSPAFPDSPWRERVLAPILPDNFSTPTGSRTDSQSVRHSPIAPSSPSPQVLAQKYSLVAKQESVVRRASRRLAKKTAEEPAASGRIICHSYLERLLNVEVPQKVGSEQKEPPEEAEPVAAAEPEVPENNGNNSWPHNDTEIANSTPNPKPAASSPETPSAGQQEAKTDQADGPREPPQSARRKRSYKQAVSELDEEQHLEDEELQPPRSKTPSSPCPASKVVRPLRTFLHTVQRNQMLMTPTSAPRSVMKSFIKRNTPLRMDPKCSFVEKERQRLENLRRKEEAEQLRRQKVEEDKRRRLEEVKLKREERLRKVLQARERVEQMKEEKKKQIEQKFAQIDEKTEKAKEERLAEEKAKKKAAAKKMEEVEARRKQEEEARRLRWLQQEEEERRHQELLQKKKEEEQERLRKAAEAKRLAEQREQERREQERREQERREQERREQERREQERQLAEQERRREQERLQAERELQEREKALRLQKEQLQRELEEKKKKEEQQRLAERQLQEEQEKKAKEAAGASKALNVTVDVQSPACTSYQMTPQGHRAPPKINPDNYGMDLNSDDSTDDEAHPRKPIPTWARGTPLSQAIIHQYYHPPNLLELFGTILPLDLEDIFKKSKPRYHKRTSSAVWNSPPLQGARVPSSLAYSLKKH

This experiment concerns the target Aurora B/INCENP (Homo sapiens, UniProt Q96GD4). Kind of experiment: Determination of inhibition of AIK: Aurora B/INCENP direct fluorescence polarization (IMAP) assay. It is filed as biochemical. The settings on record: 10 uM ATP, 0.8 nM Aurora B/INCENP; values given as bins; read-out: IC50 of Exemplified Compounds Against AIK B. Background: In fluorescence polarisation assays a small probe gives low polarisation when free and higher when bound to something large.
As for `CCS(=O)(=O)c1cccc(-c2cc(N(C)C(=O)C3CC3)c(OC)c3[nH]c4ncc(C)cc4c23)c1` [Compound 253, N-(5-(3-(ethylsulfonyl)phenyl)-8-methoxy-3-methyl-9H-pyrido[2,3-b]indol-7-yl)-N-methylcyclopropanecarboxamide], the 50% inhibitory concentration (IC50) is greater than 13 nM. The value for `CCS(=O)(=O)c1cccc(-c2cc(C(=O)OC)c(Cl)c3[nH]c4ncc(C)cc4c23)c1` [Compound 150, 8-Chloro-5-(3-ethanesulfonyl-phenyl)-3-methyl-9H-pyrido[2,3-b]indole-7-carboxylic acid methyl ester] was 4 to 5.5 nM. Take `CCS(=O)(=O)c1cccc(-c2cc(NC(=O)C3CC3)c(OC)c3[nH]c4ncc(C)cc4c23)c1` [Compound 242, N-(5-(3-(ethylsulfonyl)phenyl)-8-methoxy-3-methyl-9H-pyrido[2,3-b]indol-7-yl)-cyclopropanecarboxamide]: the IC50 lay within 8.6 to 13 nM.

`Cc1cnc2[nH]c3c(OC[C@H]4CN(CCOP(=O)(O)O)CCO4)ccc(-c4cccc(S(=O)(=O)C5CC5)c4)c3c2c1` [Compound 375, (R)-2-(2-((5-(3-(cyclopropylsulfonyl)phenyl)-3-methyl-9H-pyrido[2,3-b]indol-8-yloxy)methyl)morpholino)ethyl dihydrogen phosphate]: the IC50 was less than 4 nM. As for `CCS(=O)(=O)c1cccc(-c2ccc(OCCCN(C)CCOP(=O)(O)O)c3[nH]c4ncc(C)cc4c23)c1` [Compound 308, 2-((3-(5-(3-(ethylsulfonyl)phenyl)-3-methyl-9H-pyrido[2,3-b]indol-8-yloxy)propyl)(methyl)amino)ethyl dihydrogen phosphate], the IC50 is less than 4 nM. As for `CCS(=O)(=O)c1cccc(-c2ccc(OC(F)F)c3[nH]c4ncc(C)cc4c23)c1` [Compound 172, 8-(difluoromethoxy)-5-(3-(ethylsulfonyl)phenyl)-3-methyl-9H-pyrido[2,3-b]indole], the IC50 is 5.6 to 8.5 nM.

Consider `CCS(=O)(=O)c1cccc(-c2ccc(O[C@H](C)CCO)c3[nH]c4ncc(C)cc4c23)c1` [Compound 388, (R)-3-(5-(3-(ethylsulfonyl)phenyl)-3-methyl-9H-pyrido[2,3-b]indol-8-yloxy)butan-1-ol], for which the IC50 is 4 to 5.5 nM. In the case of `CCN(CCCOc1ccc(-c2cccc(S(=O)(=O)CC)c2)c2c1[nH]c1ncc(Cl)cc12)CCOP(=O)(O)O` [Compound 294, 2-((3-(3-chloro-5-(3-(ethylsulfonyl)phenyl)-9H-pyrido[2,3-b]indol-8-yloxy)propyl)(ethyl)amino)ethyl dihydrogen phosphate], the IC50 was less than 4 nM. The value for `CCS(=O)(=O)c1cccc(-c2ccc(OC[C@@H]3CCCN3C)c3[nH]c4ncc(C)cc4c23)c1` [Compound 188, (S)-5-(3-(ethylsulfonyl)phenyl)-3-methyl-8-((1-methylpyrrolidin-2-yl)methoxy)-9H-pyrido[2,3-b]indole] was 8.6 to 13 nM; that for `Cc1cnc2[nH]c3c(OC[C@@H](O)CN(C)C)ccc(-c4cccc(S(=O)(=O)C5CC5)c4)c3c2c1` [Compound 313, (S)-1-(5-(3-(cyclopropylsulfonyl)phenyl)-3-methyl-9H-pyrido[2,3-b]indol-8-yloxy)-3-(dimethylamino)propan-2-ol] was less than 4 nM.

In the case of `Cc1cnc2[nH]c3cc(C(=O)O)cc(SCc4ccccc4)c3c2c1` [Compound 151, 5-(benzylthio)-3-methyl-9H-pyrido[2,3-b]indole-7-carboxylic acid], the IC50 was greater than 13 nM. The value for `CNS(=O)(=O)c1cc(-c2ccc(C)c3[nH]c4ncc(C)cc4c23)ccc1OC` [Compound 14, 5-(3,8-dimethyl-9H-pyrido[2,3-b]indol-5-yl)-2-methoxy-N-methylbenzenesulfonamide] was less than 4 nM. Take `c1ccc(-c2cccc3[nH]c4ncccc4c23)cc1` [Compound 5, 5-phenyl-9H-pyrido[2,3-b]indole]: the IC50 is greater than 13 nM. With `CCS(=O)(=O)c1cccc(-c2ccc(OCC3CCNCC3)c3[nH]c4ncc(C)cc4c23)c1` [Compound 185, 5-(3-(ethylsulfonyl)phenyl)-3-methyl-8-(piperidin-4-ylmethoxy)-9H-pyrido[2,3-b]indole], the IC50 was 4 to 5.5 nM. `CCS(=O)(=O)c1cccc(-c2cnc(Cl)c3[nH]c4ncc(C)cc4c23)c1` [Compound 33, 8-Chloro-5-(3-ethanesulfonyl-phenyl)-3-methyl-9H-dipyrido[2,3-b;4′,3′-d]pyrrole]: the IC50 was 4 to 5.5 nM. The value for `CCS(=O)(=O)c1cccc(-c2ccc(OCCCOC(=O)[C@H](C)N)c3[nH]c4ncc(C)cc4c23)c1` [Compound 227, (S)-3-(5-(3-(ethylsulfonyl)phenyl)-3-methyl-9H-pyrido[2,3-b]indol-8-yloxy)propyl 2-aminopropanoate] was 5.6 to 8.5 nM.

Regarding `CCS(=O)(=O)c1cccc(-c2cc(C(=O)NC[C@@H](C)O)c(C)c3[nH]c4ncc(C)cc4c23)c1` [Compound 99, (R)-5-(3-(ethylsulfonyl)phenyl)-N-(2-hydroxypropyl)-3,8-dimethyl-9H-pyrido[2,3-b]indole-7-carboxamide], the half-maximal inhibitory concentration (IC50) fell in the range of 8.6 to 13 nM. For the compound `CCS(=O)(=O)c1cccc(-c2ccc(OCCO)c3[nH]c4ncc(C)cc4c23)c1` [Compound 216, 2-(5-(3-(ethylsulfonyl)phenyl)-3-methyl-9H-pyrido[2,3-b]indol-8-yloxy)ethanol], the IC50 was 5.6 to 8.5 nM.

`O=S(=O)(NC1CC1)c1cccc(-c2cccc3[nH]c4ncccc4c23)c1` [Compound 12, N-cyclopropyl-3-(9H-pyrido[2,3-b]indol-5-yl)benzenesulfonamide]: the IC50 was greater than 13 nM. In the case of `CCS(=O)(=O)c1cccc(-c2ccc(OC[C@@H]3CCNC3)c3[nH]c4ncc(C)cc4c23)c1` [Compound 190, (R)-5-(3-(ethylsulfonyl)phenyl)-3-methyl-8-(pyrrolidin-3-ylmethoxy)-9H-pyrido[2,3-b]indole], the IC50 is greater than 13 nM.

Turning to `CCS(=O)(=O)c1cccc(-c2cc(CN(C)C)cc3[nH]c4ncc(C)cc4c23)c1` [Compound 135, [5-(3-Ethanesulfonyl-phenyl)-3-methyl-9H-pyrido[2,3-b]indol-7-ylmethyl]-dimethyl-amine], the concentration for half-maximal inhibition (IC50) was greater than 13 nM. The value for `CCNCCCOc1ccc(-c2cccc(S(=O)(=O)C3CC3)c2)c2c1[nH]c1ncc(C)cc12` [Compound 407, 3-(5-(3-(cyclopropylsulfonyl)phenyl)-3-methyl-9H-pyrido[2,3-b]indol-8-yloxy)-N-ethylpropan-1-amine] was less than 4 nM. For the compound `COc1ccc(-c2cccc(C(=O)N3CCOCC3)c2)c2c1[nH]c1ncc(C)cc12` [Compound 259, (3-(8-methoxy-3-methyl-9H-pyrido[2,3-b]indol-5-yl)phenyl)(morpholino)methanone], the IC50 was greater than 13 nM. Consider `CCS(=O)(=O)c1cccc(-c2cnc(Oc3ccccc3)c3[nH]c4ncc(C)cc4c23)c1` [Compound 59, 5-(3-Ethanesulfonyl-phenyl)-3-methyl-8-phenoxy-9H-dipyrido[2,3-b;4′,3′-d]pyrrole], for which the IC50 lay in the range of 5.6 to 8.5 nM. As for `CCS(=O)(=O)c1cccc(-c2ccc(OCCCOC)c3[nH]c4ncc(C)cc4c23)c1` [Compound 427, 5-(3-(ethylsulfonyl)phenyl)-8-(3-methoxypropoxy)-3-methyl-9H-pyrido[2,3-b]indole], the IC50 was 5.6 to 8.5 nM.

The term IC50 denotes the concentration that inhibits the measured activity by half.

Values taken from US20090312288A1 (TAKEDA PHARMACEUTICAL COMPANY LIMITED, priority 2008, published 2009).
